Test results published in PubChem BioAssay (NCI).
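Dose response: 5 concentrations. Exposure: 48 h. Format: 96-well plates. Endpoint: linear interpolation; highest concentration if not reached. The concentration for 50% growth inhibition is given as GI50. At the TGI there is no net growth.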

Legend:
Assay in all cases: growth of human tumour cells (NCI), 48 h
HT29 colon = test system: HT29 colon
NCI-H226 lung = test system: NCI-H226 lung
COLO 205 colon = test system: COLO 205 colon
LOX IMVI melanoma = test system: LOX IMVI melanoma
IGROV1 ovarian = test system: IGROV1 ovarian
SK-OV-3 ovarian = test system: SK-OV-3 ovarian
NCI-H23 lung = test system: NCI-H23 lung
786-0 renal = test system: 786-0 renal
SK-MEL-2 melanoma = test system: SK-MEL-2 melanoma
CAKI-1 renal = test system: CAKI-1 renal

| SMILES | TGI (HT29 colon) [µM] | TGI (NCI-H226 lung) [µM] | TGI (COLO 205 colon) [µM] | TGI (LOX IMVI melanoma) [µM] | TGI (IGROV1 ovarian) [µM] | TGI (SK-OV-3 ovarian) [µM] | TGI (NCI-H23 lung) [µM] | TGI (786-0 renal) [µM] | TGI (SK-MEL-2 melanoma) [µM] | TGI (CAKI-1 renal) [µM] | GI50 (CAKI-1 renal) [µM] | GI50 (HT29 colon) [µM] | GI50 (NCI-H226 lung) [µM] | GI50 (COLO 205 colon) [µM] | GI50 (LOX IMVI melanoma) [µM] | GI50 (SK-MEL-2 melanoma) [µM] | GI50 (IGROV1 ovarian) [µM] | GI50 (SK-OV-3 ovarian) [µM] | GI50 (786-0 renal) [µM] | GI50 (NCI-H23 lung) [µM] |
| --- | --- | --- | --- | --- | --- | --- | --- | --- | --- | --- | --- | --- | --- | --- | --- | --- | --- | --- | --- | --- |
| O=C1C2c3[nH]c4ccccc4c3[C@@H]3CCCCC3C2C(=O)N1c1ccccc1 (stereo partly specified) | 37 | 42.2 | 33.6 | 29.8 | 74.8 | 72.5 | 39.2 | 37.5 | – | – | – | – | – | – | – | – | – | – | – | – |
| CCCCCCCCCCCCN(O)C(=O)c1ccccc1 | > 100 | – | – | > 100 | > 100 | 92.1 | 52.2 | 49.2 | > 100 | – | – | – | – | – | – | – | – | – | – | – |
| O=C(O)Cn1c(=O)[nH]c(=O)c2c1ncn2Cc1ccccc1 | > 100 | > 100 | > 100 | – | – | > 100 | > 100 | > 100 | > 100 | > 100 | – | – | – | – | – | – | – | – | – | – |
| O=C(NNC(=O)c1cc(/C=C/c2cccc([N+](=O)[O-])c2)[nH]c(=S)n1)Nc1ccc(Cl)cc1 | > 100 | > 100 | 37.2 | 37.3 | > 100 | > 100 | > 100 | > 100 | > 100 | – | – | – | – | – | – | – | – | – | – | – |
| Cc1cc(C)c(S(=O)(=O)ONC(=O)OC(C)(C)C)c(C)c1 | > 100 | – | > 100 | > 100 | > 100 | > 100 | > 100 | > 100 | > 100 | > 100 | – | – | – | – | – | – | – | – | – | – |
| COc1ccc2c(c1)[n+](=O)c(C(=O)/C=C/c1cc(OC)c(OC)c(OC)c1)c(C)n2[O-] | > 100 | 82.4 | > 100 | 47.6 | 42 | 51.7 | – | 30.7 | > 100 | > 100 | 26.9 | > 100 | 26.3 | 65 | 16 | 33.7 | 20.7 | 21.3 | 12.8 | – |
| CCCCn1sc(=O)n(Cc2ccc(CNC(=O)OCc3ccc4c(Br)cc(Br)c(O)c4n3)cc2)c1=O | > 100 | – | > 100 | > 100 | > 100 | > 100 | > 100 | > 100 | > 100 | > 100 | 0.609 | 28.6 | – | 24.8 | 0.403 | 1.28 | 0.531 | 1.72 | 1.58 | 0.7 |
| CC/C(C)=C1\OC(=O)C(C)C(O)C(Cc2cccnc2)NC(=O)C(NC(=O)c2ncccc2O)C(C)OC1=O (stereo unspecified) | > 100 | – | > 100 | > 100 | > 100 | > 100 | > 100 | > 100 | > 100 | > 100 | – | – | – | – | – | – | – | – | – | – |
| COC12CC(=O)C(C(C)=O)=C(O)C1(C)c1c(OC(C)=O)c(C)c(O)c(C(C)=O)c1O2 (stereo unspecified) | 78.7 | 65.7 | – | > 100 | > 100 | – | 31.3 | > 100 | 53.6 | 54.1 | – | – | – | – | – | – | – | – | – | – |
| CC(=O)OCC1O[C@@H]([S-])C(OC(C)=O)[C@H](OC(C)=O)[C@@H]1OC(C)=O.[Au+].c1ccc(CN2[CH-]N(Cc3ccccc3)C(c3ccccc3)=C2c2ccccc2)cc1 | – | 9.04 | 3.75 | 3.86 | – | 10.2 | – | 3.39 | 3.43 | 3.95 | 2 | – | 3 | 1.99 | 1.9 | 1.74 | – | 3.39 | 1.69 | – |
| CSc1ccc(/C=C/c2ccnc3ccccc23)cc1 | 31 | 29 | 27.5 | 25.4 | 39.4 | 33.3 | 28.4 | 27.9 | 30.1 | – | – | – | – | – | – | – | – | – | – | – |
| COc1ccc2c(c1)CCC1=CC3(CCC12C)SCCS3 (stereo unspecified) | > 10 | – | > 10 | > 10 | > 10 | > 10 | > 10 | > 10 | – | > 10 | – | – | – | – | – | – | – | – | – | – |
| COc1ccc(/C(=N/NC(N)=O)C(c2ccc(OC)cc2)C2C(=O)Oc3ccccc32)cc1 (stereo unspecified) | > 100 | > 100 | > 100 | > 100 | > 100 | > 100 | > 100 | > 100 | – | > 100 | – | – | – | – | – | – | – | – | – | – |
| O=C1C(Cl)=C(Nc2cccc(O)c2)C(=O)N1c1ccccc1Cl | 89.2 | 49.6 | > 100 | 52.6 | – | > 100 | > 100 | > 100 | 61.6 | > 100 | 40.3 | 24.6 | 17 | 30.3 | 20.1 | 25.5 | – | 49.9 | 39 | 32.2 |
| CC(=O)OC1CC2C(C)(C)C(=O)C=CC2(C)C2CCC3(C)C(c4ccoc4)OC(=O)C4OC43C12C (stereo unspecified) | 39 | > 100 | 21.7 | – | > 100 | 48.7 | 41.5 | 27.4 | 39.2 | 31.1 | – | – | – | – | – | – | – | – | – | – |
| COc1cc(-c2cc(=O)c3cc(C)c(C)c(C(=O)O)c3o2)cc(OC)c1OC | > 100 | – | > 100 | > 100 | > 100 | > 100 | > 100 | > 100 | > 100 | – | – | – | – | – | – | – | – | – | – | – |
| CN(C)c1n/c(=N/c2ncn[nH]2)ss1 | > 100 | > 100 | – | > 100 | > 100 | > 100 | > 100 | > 100 | > 100 | > 100 | – | – | – | – | – | – | – | – | – | – |
| CC(C)(C)C(=O)O[C@@H]1COC2C(O)COC21 (stereo partly specified) | > 100 | – | > 100 | > 100 | > 100 | – | > 100 | > 100 | – | > 100 | – | – | – | – | – | – | – | – | – | – |
| Nc1nc(N)c2nc(CNc3ccc(C(=O)NC(CCCNC(=O)c4ccccc4C(=O)O)C(=O)O)cc3)cnc2n1 (stereo unspecified) | > 100 | > 100 | > 100 | > 100 | > 100 | – | > 100 | > 100 | > 100 | > 100 | 0.00224 | 0.00102 | > 100 | 0.0765 | 0.000373 | > 100 | 0.0249 | – | 0.00054 | 0.00401 |
| Nc1nnc(Cn2c(-c3ccccc3)nc3ccc(Br)cc3c2=O)s1 | > 100 | – | > 100 | > 100 | > 100 | > 100 | > 100 | > 100 | > 100 | > 100 | 25.1 | 48.1 | – | 64.6 | 26.1 | > 100 | 18.3 | > 100 | 58.7 | 40.8 |
